The text below walks through data of patent publication US20250230193A1, “CYCLIC COMPOUND HAVING SELECTIVE KRAS INHIBITORY EFFECT ON HRAS AND NRAS” (CHUGAI SEIYAKU KABUSHIKI KAISHA, priority 2022, published 2025).

Test [1] deals with GDP-bound NRAS wild-type protein (Homo sapiens, UniProt P01111). In words: Binding to NRAS by surface plasmon resonance (SPR), Single Cycle Kinetics. To be noted: for NRAS/KRAS (ratio of KD value with respect to NRAS to KD value with respect to KRAS) / NRAS/KRAS (ratio of KD value for NRAS to KD value for KRAS): GDP-bound NRAS wild-type vs GDP-bound KRAS wild-type; for NRAS/KRAS (ratio of KD value with respect to NRAS to KD value with respect to KRAS) / NRAS/KRAS (ratio of KD value for NRAS to KD value for KRAS) / NRAS/KRAS (ratio of KD for GDP-bound NRAS wild-type to KD for KRAS): SPR.
Sequence of GDP-bound NRAS wild-type protein (P01111 whole entry): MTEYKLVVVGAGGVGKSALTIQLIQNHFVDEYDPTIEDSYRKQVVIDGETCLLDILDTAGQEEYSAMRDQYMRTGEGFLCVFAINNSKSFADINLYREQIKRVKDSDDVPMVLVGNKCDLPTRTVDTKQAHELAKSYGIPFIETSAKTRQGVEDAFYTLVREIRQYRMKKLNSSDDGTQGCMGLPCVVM

For test [2], the target named is GDP-bound HRAS wild-type protein (Homo sapiens, UniProt P01112). The experiment in a line: Binding to HRAS by surface plasmon resonance (SPR), Single Cycle Kinetics. The settings on record: for HRAS/KRAS (ratio of KD value with respect to HRAS to KD value with respect to KRAS) / HRAS/KRAS (ratio of KD value for HRAS to KD value for KRAS): GDP-bound HRAS wild-type vs GDP-bound KRAS wild-type; for HRAS/KRAS (ratio of KD value with respect to HRAS to KD value with respect to KRAS) / HRAS/KRAS (ratio of KD value for HRAS to KD value for KRAS) / HRAS/KRAS (ratio of KD for GDP-bound HRAS wild-type to KD for KRAS): SPR.
Sequence of GDP-bound HRAS wild-type protein (P01112 whole entry): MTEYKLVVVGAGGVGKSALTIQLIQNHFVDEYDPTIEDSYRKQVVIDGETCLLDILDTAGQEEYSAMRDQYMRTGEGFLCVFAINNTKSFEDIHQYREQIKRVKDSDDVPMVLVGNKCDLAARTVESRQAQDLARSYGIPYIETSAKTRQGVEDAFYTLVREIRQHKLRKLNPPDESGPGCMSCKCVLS

Where a SMILES comes first, the peptide text is derived from it. Bridges are numbered along the chain shown (N, C = ends). [ ]: non-standard residue; d: D form. The star is where a group is joined. hPhe(3-Cl-4-CF3) = N[C@@H](CCc1ccc(C(F)(F)F)c(Cl)c1)C(=O)O; NPrPhe(4-CF3) = CCCN[C@@H](Cc1ccc(C(F)(F)F)cc1)C(=O)O; NMeGly(cPent) = CN[C@H](C(=O)O)C1CCCC1; Hyp = O=C(O)[C@@H]1C[C@@H](O)CN1; NMeD = CN[C@@H](CC(=O)O)C(=O)O; NMeL = CN[C@@H](CC(C)C)C(=O)O; Morpholide = C1CN(*)CCO1; NMeA = CN[C@@H](C)C(=O)O; Ac5c = NC1(C(=O)O)CCCC1; Aze = O=C(O)[C@@H]1CCN1; Ac4c = NC1(C(=O)O)CCC1; Sar = CNCC(=O)O

Regarding `CCO[C@@H]1C[C@H]2C(=O)NC3(CCC3)C(=O)N(C)[C@@H](C3CCCC3)C(=O)N(C)[C@H](C(=O)N3CCOCC3)CC(=O)N(C)[C@@H](CC(C)C)C(=O)N[C@@H]([C@@H](C)CC)C(=O)N(C)CC(=O)N(C)[C@H]3CC(C)=CCN(C3=O)[C@@H](Cc3ccc(C(F)(F)F)cc3)C(=O)N(C)CC(=O)N[C@@H](CCc3cc(F)c(C(F)(F)F)c(F)c3)C(=O)N2C1` [PP1039], the “NRAS/KRAS (ratio of KD value with respect to NRAS to KD value with respect to KRAS)” value in test [1] (KD ratio) is “C (A compound having a KD ratio of 0.1 or more and less than 3 is denoted as C)”. Besides, in test [2] (KD ratio), the “HRAS/KRAS (ratio of KD value with respect to HRAS to KD value with respect to KRAS)” value was “C (A compound having a KD ratio of 0.1 or more and less than 3 is denoted as C)”.
Take `CCO[C@@H]1C[C@H]2C(=O)NC3(CCC3)C(=O)N(C)[C@@H](C3CCCC3)C(=O)N(C)[C@H](C(=O)N(C)C)CC(=O)N(C)[C@@H](Cc3ccccc3C)C(=O)N[C@@H]([C@@H](C)CC)C(=O)N(C)CC(=O)N(C)[C@H]3CCCCCN(C3=O)[C@@H](Cc3ccc(C(F)(F)F)cc3)C(=O)N(C)CC(=O)N[C@@H](CCc3cc(F)c(C(F)(F)F)c(F)c3)C(=O)N2C1` [PP0941]: the “NRAS/KRAS (ratio of KD value with respect to NRAS to KD value with respect to KRAS)” value in test [1] (KD ratio) was “B (a compound having 3 or more and less than 10 is denoted as B)”. Moreover, in test [2] (KD ratio), the “HRAS/KRAS (ratio of KD value with respect to HRAS to KD value with respect to KRAS)” value is “B (a compound having 3 or more and less than 10 is denoted as B)”.
Consider `CC[C@H](C)[C@@H]1NC(=O)[C@H](CC)N(C)C(=O)C[C@@H](C(=O)N(C)C)N(C)C(=O)[C@H](C2CCCC2)N(C)C(=O)C2(CCC2)NC(=O)[C@@H]2C[C@H](F)CN2C(=O)[C@H](CCc2cc(F)c(C(F)(F)F)c(F)c2)NC(=O)CN(C)C(=O)[C@H](Cc2ccc(C(F)(F)F)cc2)N2CC/C=C\C[C@@H](C2=O)N(C)C(=O)CN(C)C1=O` [PP1132], for which, in test [1] (KD ratio), the “NRAS/KRAS (ratio of KD value with respect to NRAS to KD value with respect to KRAS)” value was “A (a compound having 10 or more and less than 20 is denoted as A)”. For the same molecule, the “HRAS/KRAS (ratio of KD value with respect to HRAS to KD value with respect to KRAS)” value in test [2] (KD ratio) is “B (a compound having 3 or more and less than 10 is denoted as B)”.
As to `CCC[C@H]1C(=O)N[C@@H]([C@@H](C)CC)C(=O)N(C)CC(=O)N(C)[C@H]2C/C=C\CCN(C2=O)[C@@H](Cc2ccc(C(F)(F)F)cc2)C(=O)N(C)CC(=O)N[C@@H](CCc2cc(F)c(C(F)(F)F)c(F)c2)C(=O)N2C[C@H](OCC)C[C@H]2C(=O)NC2(CC(C)(C)C2)C(=O)N(C)[C@@H]([C@@H](C)CC)C(=O)N(C)[C@H](C(=O)N(C)C)CC(=O)N1C` [PP1941], in test [1] (KD ratio), the “NRAS/KRAS (ratio of KD value for NRAS to KD value for KRAS)” value is “A (a compound having 10 or more and less than 20 is denoted as A)”. In addition, the “HRAS/KRAS (ratio of KD value for HRAS to KD value for KRAS)” value in test [2] (KD ratio) was “A (a compound having 10 or more and less than 20 is denoted as A)”.
In the case of `CC[C@H](C)[C@@H]1NC(=O)[C@H](CC(C)C)N(C)C(=O)C[C@@H](C(=O)N(C)C)N(C)C(=O)[C@H](C2CCCC2)N(C)C(=O)C2(CC(C)(C)C2)NC(=O)[C@@H]2C[C@@H](C)CN2C(=O)[C@H](CCc2cc(F)c(C(F)(F)F)c(F)c2)NC(=O)CN(C)C(=O)[C@H](Cc2ccc(C)cc2)N2CC/C=C\C[C@@H](C2=O)N(C)C(=O)CN(C)C1=O` [PP2223], in test [1], the “NRAS/KRAS (ratio of KD value with respect to NRAS to KD value with respect to KRAS)” value is “A (a compound having 10 or more and less than 20 is denoted as A)”. The “HRAS/KRAS (ratio of KD value with respect to HRAS to KD value with respect to KRAS)” value in test [2] was “A (a compound having 10 or more and less than 20 is denoted as A)”.
Take `CCC[C@H]1C(=O)N[C@@H]([C@@H](C)CC)C(=O)N(C)CC(=O)N(C)[C@H]2C/C=C\CCN(C2=O)[C@@H](Cc2ccc(C(F)(F)F)cc2)C(=O)N(C)CC(=O)N[C@@H](CCc2cc(F)c(C(F)(F)F)c(F)c2)C(=O)N2C[C@H](OCC)C[C@H]2C(=O)NC2(CC(F)(F)C2)C(=O)N(C)[C@@H](C2CCCC2)C(=O)N(C)[C@H](C(=O)N(C)CC)CC(=O)N1C` [PP1735]: the “NRAS/KRAS (ratio of KD value for NRAS to KD value for KRAS)” value in test [1] (KD ratio) is listed as “AA (a compound having 20 or more is denoted as AA)”. For the same molecule, the “HRAS/KRAS (ratio of KD value for HRAS to KD value for KRAS)” value in test [2] (KD ratio) was “A (a compound having 10 or more and less than 20 is denoted as A)”.
On to `CCCN1C(=O)CN(C)C(=O)CNC(=O)[C@H]([C@@H](C)CC)NC(=O)[C@H](CC(C)C)N(C)C(=O)C[C@@H](C(=O)N2CCOCC2)N(C)C(=O)[C@H](C2CCCC2)N(C)C(=O)C2(CCC2)NC(=O)[C@@H]2C[C@@H](OCC)CN2C(=O)[C@H](CCc2ccc(C(F)(F)F)c(Cl)c2)NC(=O)CN(C)C(=O)[C@@H]1Cc1ccc(C(F)(F)F)cc1` [PP0397] ([NMeL]IG[Sar][NPrPhe(4-CF3)][Sar][hPhe(3-Cl-4-CF3)][Hyp](Et)[Ac4c][NMeGly(cPent)][NMeD]-Morpholide; lactam N-11), for which the “NRAS/KRAS (ratio of KD for GDP-bound NRAS wild-type to KD for KRAS)” value in test [1] (KD ratio NRAS/KRAS) was “C (A compound having a KD ratio of 0.1 or more and less than 3 is denoted as C)”. The “HRAS/KRAS (ratio of KD for GDP-bound HRAS wild-type to KD for KRAS)” value in test [2] (KD ratio HRAS/KRAS) is “C (A compound having a KD ratio of 0.1 or more and less than 3 is denoted as C)”.
`CCC(CC)[C@H]1C(=O)N(C)[C@H](C(=O)N(C)C)CC(=O)N(C)[C@@H](COC)C(=O)N[C@@H]([C@@H](C)CC)C(=O)N(C)CC(=O)N(C)[C@H]2C/C=C\CCN(C2=O)[C@@H](Cc2ccc(C(F)(F)F)cc2)C(=O)N(C)CC(=O)N[C@@H](CCc2cc(F)c(C(F)(F)F)c(F)c2)C(=O)N2CCOC[C@H]2C(=O)NC2(CC(C)(C)C2)C(=O)N1C` [PP2917]: the “NRAS/KRAS (ratio of KD value with respect to GDP-bound NRAS wild-type protein to KD value with respect to KRAS)” value in test [1] (KD ratio NRAS/KRAS, class symbols) is given as “AA (a compound having 20 or more is denoted as AA)”. Moreover, the “HRAS/KRAS (ratio of KD value with respect to GDP-bound HRAS wild-type protein to KD value with respect to KRAS)” value in test [2] (KD ratio HRAS/KRAS, class symbols) is “A (a compound having 10 or more and less than 20 is denoted as A)”.
Consider `CCO[C@@H]1C[C@H]2C(=O)NC3(CCC3)C(=O)N(C)[C@@H](C3CCCC3)C(=O)N(C)[C@H](C(=O)N3CCOCC3)CC(=O)N(C)[C@@H](CC)C(=O)N[C@@H]([C@@H](C)CC)C(=O)N(C)CC(=O)N(C)[C@H]3C/C=C\CCN(C3=O)[C@@H](Cc3ccc(C(F)(F)F)cc3)C(=O)N(C)CC(=O)N[C@@H](CCc3cc(F)c(C(F)(F)F)c(F)c3)C(=O)N2C1` [PP1092], for which, in test [1] (KD ratio), the “NRAS/KRAS (ratio of KD value with respect to NRAS to KD value with respect to KRAS)” value was “A (a compound having 10 or more and less than 20 is denoted as A)”. Also, the “HRAS/KRAS (ratio of KD value with respect to HRAS to KD value with respect to KRAS)” value in test [2] (KD ratio) was “A (a compound having 10 or more and less than 20 is denoted as A)”.
`CCCN1C(=O)[C@@H]2CCN2C(=O)[C@H](C)N(C)C(=O)[C@H]([C@@H](C)CC)NC(=O)[C@H](CC(C)C)N(C)C(=O)C[C@@H](C(=O)N2CCOCC2)N(C)C(=O)[C@H](C2CCCC2)N(C)C(=O)C2(CCCC2)NC(=O)[C@H](C)NC(=O)[C@H](CCc2ccc(C(F)(F)F)c(Cl)c2)NC(=O)CN(C)C(=O)[C@@H]1Cc1ccc(C(F)(F)F)cc1` [PP0153] ([NMeL]I[NMeA][Aze][NPrPhe(4-CF3)][Sar][hPhe(3-Cl-4-CF3)]A[Ac5c][NMeGly(cPent)][NMeD]-Morpholide; lactam N-11): the “NRAS/KRAS (ratio of KD for GDP-bound NRAS wild-type to KD for KRAS)” value in test [1] (KD ratio NRAS/KRAS) is “C (A compound having a KD ratio of 0.1 or more and less than 3 is denoted as C)”. In test [2] (KD ratio HRAS/KRAS), the “HRAS/KRAS (ratio of KD for GDP-bound HRAS wild-type to KD for KRAS)” value was “C (A compound having a KD ratio of 0.1 or more and less than 3 is denoted as C)”.
